Experimental data from the supplement of paper PMC10307832.

How the values were obtained:
Test in all cases: relative viability (nuclei count vs DMSO), 5 days (fraction); higher = more cells survive
[1] = compound: O=C(Nc1cccc(C(F)(F)F)c1)Nc1cc(S(=O)(=O)NC2CC2)ccc1-c1ccsc1 [AGI-6780] + Cc1nc(NC(=O)N2CCC[C@H]2C(N)=O)sc1-c1ccnc(C(C)(C)C(F)(F)F)c1 [Alpelisib] (partner 2 µM)
Method in brief: (§1)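 Relative viability was taken as the ratio of nuclei in treated wells to nuclei in vehicle wells. Lung cancer cell lines in 1536-well plates received compounds by pin tool one day after seeding, either one drug alone or a fixed anchor-drug dose plus five library-drug doses (not always all listed) in √10 steps. Nuclei were counted on 4× images after 5 days of treatment, and values are medians of duplicate plates.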

[2] = compound: O=C(Nc1cccc(C(F)(F)F)c1)Nc1cc(S(=O)(=O)NC2CC2)ccc1-c1ccsc1 [AGI-6780] + COc1cccc2cc(-c3nc([C@H]4CC[C@H](C(=O)O)CC4)n4ncnc(N)c34)[nH]c12 [OSI-027] (partner 0.5 µM)
Method in brief: as §1

[3] = compound: O=C(Nc1cccc(C(F)(F)F)c1)Nc1cc(S(=O)(=O)NC2CC2)ccc1-c1ccsc1 [AGI-6780] + CS(=O)(=O)CCNCc1ccc(-c2ccc3ncnc(Nc4ccc(OCc5cccc(F)c5)c(Cl)c4)c3c2)o1 [Lapatinib] (partner 2 µM)
Method in brief: as §1

[4] = compound: O=C(Nc1cccc(C(F)(F)F)c1)Nc1cc(S(=O)(=O)NC2CC2)ccc1-c1ccsc1 [AGI-6780] + C[C@]1(O)C[C@@H](c2nc(-c3ccc4ccc(-c5ccccc5)nc4c3)c3c(N)nccn32)C1 [Linsitinib] (partner 1 µM)
Method in brief: as §1

| Cell Line | relative viability ([1]; first compound 0.08 µM) | relative viability ([1]; first compound 0.253 µM) | relative viability ([1]; first compound 0.8 µM) | relative viability ([1]; first compound 2.53 µM) | relative viability ([1]; first compound 8 µM) | relative viability ([2]; first compound 0.08 µM) | relative viability ([2]; first compound 0.253 µM) | relative viability ([2]; first compound 0.8 µM) | relative viability ([2]; first compound 2.53 µM) | relative viability ([2]; first compound 8 µM) | relative viability ([3]; first compound 0.08 µM) | relative viability ([3]; first compound 0.253 µM) | relative viability ([3]; first compound 0.8 µM) | relative viability ([3]; first compound 2.53 µM) | relative viability ([3]; first compound 8 µM) | relative viability ([4]; first compound 0.08 µM) | relative viability ([4]; first compound 0.253 µM) | relative viability ([4]; first compound 0.8 µM) | relative viability ([4]; first compound 2.53 µM) | relative viability ([4]; first compound 8 µM) |
| --- | --- | --- | --- | --- | --- | --- | --- | --- | --- | --- | --- | --- | --- | --- | --- | --- | --- | --- | --- | --- |
| HCC-366 | 0.589 | 0.442 | 0.441 | 0.278 | 0.417 | 1.02 | 1.09 | 0.926 | 0.595 | 1 | 1.05 | 1.08 | 1.01 | 1.1 | 1.05 | 0.891 | 0.682 | 0.637 | 0.536 | 0.568 |
| HCC-827 | 0.937 | 0.971 | 0.986 | 0.952 | 0.955 | 0.68 | 0.705 | 0.824 | 0.673 | 0.798 | 0.201 | 0.215 | 0.197 | 0.191 | 0.179 | 1.01 | 0.96 | 0.872 | 0.989 | 0.942 |
| HOP-62 | 0.923 | 0.985 | 0.986 | 1.14 | 1.27 | 0.886 | 0.906 | 0.884 | 0.715 | 1.01 | 0.974 | 0.888 | 0.965 | 1.06 | 1.06 | 0.945 | 1.3 | 1.08 | 1.04 | 0.826 |
| IA-LM | 0.858 | 0.846 | 0.719 | 0.797 | 0.707 | – | – | – | – | – | 1.01 | 0.845 | 0.928 | 0.83 | 0.896 | 0.58 | 0.627 | 0.762 | 0.536 | 0.56 |
| LC-2-ad | 0.945 | 0.983 | 0.897 | 0.862 | 0.826 | 0.829 | 0.875 | 0.874 | 0.638 | 0.794 | 0.943 | 1.04 | 0.979 | 1.02 | 0.958 | 0.824 | 0.9 | 0.878 | 0.882 | 0.791 |
| LCLC-97TM1 | 0.211 | 0.246 | 0.393 | – | 0.351 | 0.596 | 0.697 | 0.492 | 0.398 | 0.643 | 0.803 | 1.61 | 1.14 | – | 1 | 0.177 | 0.252 | 0.21 | – | 0.186 |
| LCLC-103H | 0.916 | 1.01 | 0.906 | 0.983 | 0.78 | 0.554 | 0.518 | 0.45 | 0.38 | 0.491 | – | – | – | – | – | 1.18 | 1.15 | 0.963 | 1.06 | 1.06 |
| LK-2 | 1.27 | 1.1 | 1.29 | – | 0.986 | 0.172 | 0.224 | 0.189 | – | 0.197 | 0.867 | 0.951 | 1.14 | – | 0.958 | 0.617 | 0.646 | 0.536 | – | 0.522 |
| LOU-NH91 | 0.743 | 0.699 | 0.685 | 0.646 | 0.721 | 0.739 | 0.705 | 0.676 | 0.621 | 0.709 | 0.773 | 0.836 | 0.78 | 0.587 | 0.737 | 0.99 | 0.921 | 0.857 | 0.901 | 0.93 |
